US6329392A, “Substituted piperidines useful for the treatment of allergic diseases” (Aventis Pharmaceuticals, Inc., priority 1998, dated 2001)
Like-named read-outs stand apart in the source and are kept apart here.

What was measured:
[1] = molecular target: T1, H1 receptor (Cavia porcellus, UniProt P31389); experiment: Histamine (H1) antagonism in guinea pig ileum; assay type: cell-based
T1 construct: A piece of ileum, about 20 cm in length, is removed and cut into 2 cm pieces; from tissue; host or cells: ileum of male Hartley guinea pigs
Method: Male Hartley guinea pigs, weighing 200-450 grams, are sacrificed by CO2 asphyxiation. A piece of ileum, about 20 cm in length, is removed and cut into 2 cm pieces. Each ileum piece is placed in an organ bath at 37° C. containing Tyrode's solution and is constantly aerated with 95% O2 /5%CO2. Tyrode's solution has the composition: NaCl 136.9 mM, KCl […], CaCl2 1.8 mM, NaH2 PO4 0.42 mM, NaHCO3 11.9 mM, and dextrose 5.55 mM. Contractions are measured with an isometric transducer (Grass FTO3C), and are recorded on a polygraph recorder and/or a computer. The ileum strips are loaded with 1.0 grams of tension and allowed to equilibrate for a minimum of 30 minutes before starting the experiments.
The potency of the antagonism is determined by the magnitude of the shift and is expressed as a pA2 value which is the negative logarithm of the molar concentration of antagonist which produces a two-fold shift of the dose response curve to the right. The pA2 value is calculated by using Schild analysis. O. Arunlakshana and H. O. Schild, Br. J. Pharmacol Chemother. 14, 48-58 (1958).
Table 1 presents pA2 values by the method of Example 93 which indicate potency of H1 receptor antagonism and IC50 values by the method of Example 95 which indicates NK1 receptor binding affinity for representative compounds of the present invention.

[2] = molecular target: T2, NK1 receptor (Cavia porcellus, UniProt P30547); experiment: Antagonism of iodinated tachykinin (substance P) binding to NK1 receptors in guinea pig lungs; details: read-out: NK1 Receptor Binding Affinity, IC50
T2 construct: as evaluated in guinea pig lungs (Keystone Biologicals, Cleveland, Ohio); tissue Keystone Biologicals, Cleveland, Ohio; host or cells: guinea pig lung membranes
Method: Antagonism of iodinated tachykinin binding to NK1 receptors by putative antagonists
One skilled in the art can measure the NK1 receptor affinity of proposed tachykinin antagonists as evaluated in guinea pig lungs (Keystone Biologicals, Cleveland, Ohio). Tissues or cells are homogenized with a Polytron in 15 volumes of 50 mM Tris-HCl buffer (pH 7.4, […]) and centrifuged. The pellet is resuspended in Tris-HCl buffer and centrifuged; the pellet is washed twice by resuspension. The final pellet is resuspended at a concentration of 40 mg/ml incubation buffer and remains at room temperature for at least 15 min prior to use. […] Incubations are performed at room temperature for 90 min; binding is terminated by addition of 50 mM Tris-HCl buffer (pH 7.4, […]) and filtration under vacuum through GF/B filters presoaked with 0.1% polyethyleneimine. Filter bound radioactivity is quantitated in a gamma counter. […] IC50 values (concentration required to inhibit 50% of receptor binding) are generated for each of the test compounds by nonlinear regression using an iterative curve fitting program (GraphPAD Inplot, San Diego, Calif.).

[3] = read-out: H1 Receptor Antagonism, pA2, in vitro (converted)
[4] = guinea pig lungs, 0.1 nM 125I-Bolton Hunter Lys-3 labeled substance P, room temperature 90 min, pH 7.4

T1 sequence (P31389 whole entry): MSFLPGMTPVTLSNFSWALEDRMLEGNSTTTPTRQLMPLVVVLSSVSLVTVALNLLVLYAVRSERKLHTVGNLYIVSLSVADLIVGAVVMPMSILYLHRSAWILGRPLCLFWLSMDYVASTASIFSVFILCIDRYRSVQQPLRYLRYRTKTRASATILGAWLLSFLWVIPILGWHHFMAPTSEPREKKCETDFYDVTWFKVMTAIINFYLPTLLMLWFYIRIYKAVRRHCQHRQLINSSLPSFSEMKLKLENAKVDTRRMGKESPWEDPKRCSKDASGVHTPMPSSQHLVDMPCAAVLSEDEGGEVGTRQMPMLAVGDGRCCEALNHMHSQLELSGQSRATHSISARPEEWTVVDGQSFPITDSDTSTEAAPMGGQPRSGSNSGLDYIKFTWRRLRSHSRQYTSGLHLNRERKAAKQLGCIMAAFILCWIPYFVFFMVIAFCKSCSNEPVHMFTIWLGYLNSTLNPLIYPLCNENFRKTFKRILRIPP
T2 sequence (P30547 whole entry): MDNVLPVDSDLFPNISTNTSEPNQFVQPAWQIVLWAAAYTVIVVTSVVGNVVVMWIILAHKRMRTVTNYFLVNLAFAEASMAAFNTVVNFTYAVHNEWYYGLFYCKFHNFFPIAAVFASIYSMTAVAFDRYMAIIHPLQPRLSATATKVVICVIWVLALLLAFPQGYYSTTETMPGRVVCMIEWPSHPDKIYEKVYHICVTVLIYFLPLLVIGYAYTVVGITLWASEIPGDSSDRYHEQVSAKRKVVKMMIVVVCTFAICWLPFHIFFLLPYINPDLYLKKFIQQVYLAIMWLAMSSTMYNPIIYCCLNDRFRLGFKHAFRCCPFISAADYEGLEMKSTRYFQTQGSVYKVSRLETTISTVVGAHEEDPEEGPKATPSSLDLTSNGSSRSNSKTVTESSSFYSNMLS

Row | SMILES | Kb [1, 3] | IC50 [2] | IC50 [2, 4] | Kb [1]
1 | COc1cc(C(=O)N2CCC(CCN3CCC(C(=O)c4nc5ccccc5n4Cc4ccc(F)cc4)CC3)(c3ccc(Cl)c(Cl)c3)C2)cc(OC)c1OC (single isomer, unassigned; (+)) [Example 14, (+)-1-(3,4,5-Trimethoxy-benzoyl)-3-[2-[4-[1-(4-fluoro-benzyl)-1 H-benzoimidazole-2-carbonyl]-piperidin-1-yl]-ethyl]-3-(3,4-dichloro-phenyl)-pyrrolidine] | 50.1 nM | 29 nM | – | –
2 | CCOCCn1c(C2(O)CCN(CCC3(c4ccc(Cl)c(Cl)c4)CCN(C(=O)c4cc(OC)c(OC)c(OC)c4)C3)CC2)nc2ccccc21 (single isomer, unassigned; (+)) [Example 81, (+)-1-(3,4,5-Trimethoxy-benzoyl)-3-[2-[4-[1-(2-ethoxy-ethyl)-1H-benzoimidazole]-4-hydroxy-piperidin-1-yl]-ethyl]-3-(3,4-dichloro-phenyl)-pyrrolidine] | 525 nM | 10 nM | – | –
3 | COc1ccc(C2(CCN3CCC(C(=O)c4nc5ccccc5n4Cc4ccc(F)cc4)CC3)CCN(C(=O)c3ccccc3)C2)cc1OC (stereo not drawn) [Example 2, 1-Benzoyl-3-[2-[4-[1-(4-fluoro-benzyl)-1 H-benzoimidazole-2-carbonyl]-piperidin-1-yl]-ethyl]-3-(3,4-dimethoxy-phenyl)-pyrrolidine] | – | – | – | 26.9 nM
4 | COc1ccc(C2(CCN3CCC(O)(c4nc5ccccc5n4Cc4ccc(F)cc4)CC3)CCN(C(=O)c3ccccc3)C2)cc1OC (stereo not drawn) [Example 3, 1-Benzoyl-3-[2-[4-[1-(4-fluoro-benzyl)-1 H-benzoimidazol-2-yl]-4-hydroxy-piperidin-1-yl]-ethyl]-3-(3,4-dimethoxy-phenyl)-pyrrolidine] | – | 406 nM | – | 37.2 nM
5 | COc1ccc(C2(CCN3CCC(c4nc5ccccc5s4)CC3)CCN(C(=O)c3ccccc3)C2)cc1OC (stereo not drawn) [Example 4, 1-Benzoyl-3-[2-[4-(benzothiazol-2-yl)-piperidin-1-yl]-ethyl]-3-(3,4-dimethoxy-phenyl)-pyrrolidine] | 158 nM | 2590 nM | – | –
6 | COc1ccc(C2(CCN3CCC(O)(c4nc5ccccc5n4Cc4ccc(F)cc4)CC3)CCN(C(=O)c3cc(OC)c(OC)c(OC)c3)C2)cc1OC (stereo not drawn) [Example 5, 1-(3,4,5-Trimethoxy-benzoyl)-3-[2-[4-[1-(4-fluoro-benzyl)-1 H-benzoimidazol-2-yl]-4-hydroxy-piperidin-1-yl]-ethyl]-3-(3,4-dimethoxy-phenyl)-pyrrolidine] | 269 nM | 25 nM | – | –
7 | COc1cc(C(=O)N2CCC(CCN3CCC(C(=O)c4nc5ccccc5n4Cc4ccc(F)cc4)CC3)(c3ccc(Cl)c(Cl)c3)C2)cc(OC)c1OC (stereo not drawn) [Example 6, 1-(3,4,5-Trimethoxy-benzoyl)-3-[2-[4-[1-(4-fluoro-benzyl)-1 H-benzoimidazole-2-carbonyl]-piperidin-1-yl]-ethyl]-3-(3,4-dichloro-phenyl)-pyrrolidine] | 141 nM | 85 nM | – | –
8 | COc1cc(C(=O)N2CCC(CCN3CCC(O)(c4nc5ccccc5n4Cc4ccc(F)cc4)CC3)(c3ccc(Cl)c(Cl)c3)C2)cc(OC)c1OC (stereo not drawn) [Example 7, 1-(3,4,5-Trimethoxy-benzoyl)-3-[2-[4-[1-(4-fluoro-benzyl)-1 H-benzoimidazol-2-yl]-4-hydroxy-piperidin-1-yl]-ethyl]-3-(3,4-dichloro-phenyl)-pyrrolidine] | – | 64 nM | – | 38.9 nM
9 | COc1cc(C(=O)N2CCC(CCN3CCC(C(=O)c4nc5ccccc5n4Cc4ccc(F)cc4)CC3)(c3ccc4c(c3)OCO4)C2)cc(OC)c1OC (stereo not drawn) [Example 10, 1-(3,4,5-Trimethoxy-benzoyl)-3-[2-[4-[1-(4-fluoro-benzyl)-1 H-benzoimidazole-2-carbonyl]-piperidin-1-yl]-ethyl]-3-(benzo[1,3]dioxol-5-yl)-pyrrolidine] | 60.3 nM | – | 146 nM | –
10 | COc1ccc(C(=O)N2CCC(CCN3CCC(C(=O)c4nc5ccccc5n4Cc4ccc(F)cc4)CC3)(c3ccc4c(c3)OCO4)C2)c(OC)c1OC (stereo not drawn) [Example 27, 1-(2,3,4-Trimethoxy-benzoyl)-3-[2-[4-[1-(4-fluoro-benzyl)-1 H-benzoimidazole-2-carbonyl]-piperidin-1-yl]-ethyl]-3-(benzo[1,3]dioxol-5-yl)-pyrrolidine] | 20.9 nM | 370 nM | – | –
11 | CCOc1cc(C(=O)N2CCC(CCN3CCC(C(=O)c4nc5ccccc5n4Cc4ccc(F)cc4)CC3)(c3ccc(OC)c(OC)c3)C2)cc(OCC)c1OCC (stereo not drawn) [Example 28, 1-(3,4,5-Triethoxy-benzoyl)-3-[2-[4-[1-(4-fluoro-benzyl)-1 H-benzoimidazole-2-carbonyl]-piperidin-1-yl]-ethyl]-3-(3,4-dimethoxy-phenyl)-pyrrolidine] | 20.4 nM | – | 1240 nM | –
12 | COc1cc(C(=O)N2CCC(CCN3CCC(C(=O)c4nc5ccccc5n4Cc4ccccn4)CC3)(c3ccc(Cl)c(Cl)c3)C2)cc(OC)c1OC (stereo not drawn) [Example 33, 1-(3,4,5-Trimethoxy-benzoyl)-3-[2-[4-[1-(pyrid-2-ylmethyl)-1 H-benzoimidazole-2-carbonyl]-piperidin-1-yl]-ethyl]-3-(3,4-dichloro-phenyl)-pyrrolidine] | 41.7 nM | 38 nM | – | –

Further lines, with some results ahead:

Row | Kb [1, 3] | IC50 [2] | IC50 [2, 4] | SMILES | Kb [1]
13 | 31.6 nM | – | 31 nM | COc1ccc(C2(CCN3CCC(C(=O)c4nc5ccccc5n4Cc4ccc(F)cc4)CC3)CCN(C(=O)c3cc(OC)c(OC)c(OC)c3)C2)cc1OC (stereo not drawn) [Example 1, 1-(3,4,5-Trimethoxy-benzoyl)-3-[2-[4-[1-(4-fluoro-benzyl)-1H-benzoimidazole-2-carbonyl]-piperidin-1-yl]-ethyl]-3-(3,4-dimethoxy-phenyl)-pyrrolidine] | –
14 | 724 nM | 122 nM | – | COc1ccc(C2(CCN3CCC(C(O)(c4ccccc4)c4ccccc4)CC3)CCN(C(=O)c3cc(OC)c(OC)c(OC)c3)C2)cc1OC (stereo not drawn) [Example 9, 1-(3,4,5-Trimethoxy-benzoyl)-3-[2-[4-(hydroxy-diphenyl-methyl)-piperidin-1-yl]-ethyl]-3-(3,4-dimethoxy-phenyl)-pyrrolidine] | –
15 | 33.9 nM | – | – | COc1cc(C(=O)N2CCC(CCN3CCC(C(=O)c4nc5ccccc5n4Cc4ccc(F)cc4)CC3)(c3ccccc3)C2)cc(OC)c1OC (stereo not drawn) [Example 11, 1-(3,4,5-Trimethoxy-benzoyl)-3-[2-[4-[1-(4-fluoro-benzyl)-1 H-benzoimidazole-2-carbonyl]-piperidin-1-yl]-ethyl]-3-phenyl-pyrrolidine] | –
16 | 129 nM | 109 nM | – | COc1cc(C(=O)N2CCC(CCN3CCC(C(=O)c4nc5ccccc5n4Cc4ccc(F)cc4)CC3)(c3ccc(C(F)(F)F)cc3)C2)cc(OC)c1OC (stereo not drawn) [Example 20, 1-(3,4,5-Trimethoxy-benzoyl)-3-[2-[4-[1-(4-fluoro-benzyl)-1 H-benzoimidazole-2-carbonyl]-piperidin-1-yl]-ethyl]-3-(4-trifluoromethyl-phenyl)-pyrrolidine] | –
17 | 141 nM | 325 nM | – | COc1cc(C(=O)N2CCC(CCN3CCC(C(=O)c4nc5ccccc5n4Cc4ccc(F)cc4)CC3)(c3ccc(F)cc3F)C2)cc(OC)c1OC (stereo not drawn) [Example 25, 1-(3,4,5-Trimethoxy-benzoyl)-3-[2-[4-[1-(4-fluoro-benzyl)-1 H-benzoimidazole-2-carbonyl]-piperidin-1-yl]-ethyl]-3-(2,4-difluoro-phenyl)-pyrrolidine] | –
18 | 61.7 nM | 288 nM | – | CC(C)Oc1cccc(CC(=O)N2CCC(CCN3CCC(C(=O)c4nc5ccccc5n4Cc4ccc(F)cc4)CC3)(c3ccc4c(c3)OCO4)C2)c1 (stereo not drawn) [Example 26, 1-(3-Isopropoxy-phenyl-acetyl)-3-[2-[4-[1-(4-fluoro-benzyl)-1 H-benzoimidazole-2-carbonyl]-piperidin-1-yl]-ethyl]-3-(benzo[1,3]dioxol-5-yl)-pyrrolidine] | –
19 | 513 nM | 15 nM | – | COc1cc(C(=O)N2CCC(CCN3CCC(C(=O)c4nc5ccccc5n4CCN4CCOCC4)CC3)(c3ccc(Cl)c(Cl)c3)C2)cc(OC)c1OC (stereo not drawn) [Example 32, 1-(3,4,5-Trimethoxy-benzoyl)-3-[2-[4-[1-(2-(morpholin-4-yl)-ethyl)-1 H-benzoimidazole-2-carbonyl]-piperidin-1-yl]-ethyl]-3-(3,4-dichlororphenyl)-pyrrolidine] | –
